Tests used:
[1] = molecular target: purified human, His-tagged PRC2 complex (Homo sapiens (Human), UniProt O75530); test: Hot Spot HMT assay of PRC2 enzymatic activity (tritiated methyl transfer from SAM to core histone); type: biochemical; conditions: 10 nM purified PRC2 complex, 0.05 mg/ml core histone H3, 1 uM 3H-SAM, 1 hr at 30° C.; read-out: IC50, Inhibition of PRC2-mediated Enzymatic Activity
How it was run: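 10 nM His-tagged five-subunit PRC2 complex (EZH2, EED, SUZ12, AEBP2, RbAp48) with 0.05 mg/ml core histone H3 in pH 8 Tris buffer, 1% DMSO, preincubated with compound 20 min at 30° C; reaction started with 1 uM [3H]-SAM, 1 hr at 30° C. Filter binding plus scintillation counting; IC50 from 10-point, three-fold dilutions starting at 1.0 μM.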

[2] = tested on: PRC2-mediated histone H3 methylation (H3 Lys27 trimethylation) in Pfeiffer cells expressing mutant EZH2 (A677G); test: Tri-Methyl Histone H3 (Lys 27) sandwich ELISA in Pfeiffer cells; type: cell-based, human; conditions: Homo sapiens; Pfeiffer cells, 96 hours incubation, ELISA; read-out: IC50, Inhibition of EZH2-mediated Histone H3 Trimethylation
How it was run: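 Pfeiffer DLBCL cells carrying EZH2 A677G were treated for 96 h at 37 °C with 3-fold dilutions, 1 μM to 0.15 nM final. Acid-extracted histones, neutralized, went into a sandwich ELISA for H3K27me3 with HRP/TMB read-out at 450 nm. Values binned A ≤250 nM, B >250–≤500 nM, C >500 nM–≤5 μM.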

[3] = tested on: Karpas 422 cells expressing mutant EZH2 (Y641N); test: Karpas 422 cell viability (Cell Titre Glo) assay; type: cell-based, human; conditions: Homo sapiens, CTG viability, time point (Day 4, Day 7 or Day 11) not given, read-out: IC50, Inhibiting Proliferation of Cells Expressing an Activating Mutant Form of EZH2
How it was run: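 Cells plated at 1000/well were exposed to final concentrations from 10 μM down to 1.5 nM (3-fold steps) at 37° C. Viability was read by CellTiter-Glo on day 4, 7 or 11; day-11 plates were re-fed with compound on day 7. IC50 reported per time point in binned ranges.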

Sequence of purified human, His-tagged PRC2 complex (Q15910 whole entry): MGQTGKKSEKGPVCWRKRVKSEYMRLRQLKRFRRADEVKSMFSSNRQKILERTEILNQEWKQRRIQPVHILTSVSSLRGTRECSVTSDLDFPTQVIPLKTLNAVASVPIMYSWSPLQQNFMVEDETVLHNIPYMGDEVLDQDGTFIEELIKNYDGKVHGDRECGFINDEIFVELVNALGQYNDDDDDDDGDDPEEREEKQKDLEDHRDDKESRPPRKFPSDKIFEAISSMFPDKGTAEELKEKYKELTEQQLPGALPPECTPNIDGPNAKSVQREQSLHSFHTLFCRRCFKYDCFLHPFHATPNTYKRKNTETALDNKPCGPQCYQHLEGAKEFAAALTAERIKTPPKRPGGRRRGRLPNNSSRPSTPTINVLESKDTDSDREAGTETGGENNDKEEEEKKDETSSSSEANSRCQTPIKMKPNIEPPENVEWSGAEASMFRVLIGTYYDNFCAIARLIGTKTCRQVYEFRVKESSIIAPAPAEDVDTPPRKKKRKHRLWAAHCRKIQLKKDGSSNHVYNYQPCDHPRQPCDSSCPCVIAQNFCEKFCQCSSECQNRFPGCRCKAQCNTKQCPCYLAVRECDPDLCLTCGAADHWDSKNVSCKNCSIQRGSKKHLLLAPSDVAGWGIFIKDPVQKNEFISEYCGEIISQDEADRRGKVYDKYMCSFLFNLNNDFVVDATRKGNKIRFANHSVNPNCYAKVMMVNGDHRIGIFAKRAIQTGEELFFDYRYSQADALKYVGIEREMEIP
Sequence of purified human, His-tagged PRC2 complex (O75530 whole entry): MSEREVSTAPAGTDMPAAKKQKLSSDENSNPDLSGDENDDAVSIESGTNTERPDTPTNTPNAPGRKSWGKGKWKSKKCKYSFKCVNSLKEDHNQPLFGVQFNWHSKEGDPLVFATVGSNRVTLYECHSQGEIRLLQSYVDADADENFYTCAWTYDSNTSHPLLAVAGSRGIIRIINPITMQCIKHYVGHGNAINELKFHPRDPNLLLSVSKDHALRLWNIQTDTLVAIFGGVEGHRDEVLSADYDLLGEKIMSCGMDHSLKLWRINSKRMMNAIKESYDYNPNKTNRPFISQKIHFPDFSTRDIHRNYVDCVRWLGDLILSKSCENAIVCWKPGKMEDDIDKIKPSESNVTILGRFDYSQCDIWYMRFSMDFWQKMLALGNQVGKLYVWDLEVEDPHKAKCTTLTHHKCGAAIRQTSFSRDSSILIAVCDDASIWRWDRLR
Sequence of purified human, His-tagged PRC2 complex (Q15022 whole entry partner): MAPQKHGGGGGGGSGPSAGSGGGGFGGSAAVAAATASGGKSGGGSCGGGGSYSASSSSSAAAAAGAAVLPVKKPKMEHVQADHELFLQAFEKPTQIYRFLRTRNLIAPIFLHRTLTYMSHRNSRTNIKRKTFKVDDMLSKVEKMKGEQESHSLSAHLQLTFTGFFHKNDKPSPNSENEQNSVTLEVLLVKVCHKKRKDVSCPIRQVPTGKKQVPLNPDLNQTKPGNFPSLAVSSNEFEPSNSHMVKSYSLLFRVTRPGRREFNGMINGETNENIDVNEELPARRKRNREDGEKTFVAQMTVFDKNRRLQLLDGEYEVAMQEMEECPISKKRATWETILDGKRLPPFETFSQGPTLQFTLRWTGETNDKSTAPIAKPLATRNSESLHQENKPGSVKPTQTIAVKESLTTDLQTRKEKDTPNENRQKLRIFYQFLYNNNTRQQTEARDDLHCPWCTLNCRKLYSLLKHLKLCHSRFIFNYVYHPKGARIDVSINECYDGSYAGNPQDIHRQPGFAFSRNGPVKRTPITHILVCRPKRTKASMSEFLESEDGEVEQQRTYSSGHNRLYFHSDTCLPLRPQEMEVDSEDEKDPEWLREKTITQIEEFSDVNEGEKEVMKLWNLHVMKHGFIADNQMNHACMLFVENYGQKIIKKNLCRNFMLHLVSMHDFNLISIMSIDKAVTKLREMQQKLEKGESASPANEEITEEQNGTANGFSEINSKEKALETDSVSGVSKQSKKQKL
Sequence of purified human, His-tagged PRC2 complex (Q6ZN18 whole entry partner): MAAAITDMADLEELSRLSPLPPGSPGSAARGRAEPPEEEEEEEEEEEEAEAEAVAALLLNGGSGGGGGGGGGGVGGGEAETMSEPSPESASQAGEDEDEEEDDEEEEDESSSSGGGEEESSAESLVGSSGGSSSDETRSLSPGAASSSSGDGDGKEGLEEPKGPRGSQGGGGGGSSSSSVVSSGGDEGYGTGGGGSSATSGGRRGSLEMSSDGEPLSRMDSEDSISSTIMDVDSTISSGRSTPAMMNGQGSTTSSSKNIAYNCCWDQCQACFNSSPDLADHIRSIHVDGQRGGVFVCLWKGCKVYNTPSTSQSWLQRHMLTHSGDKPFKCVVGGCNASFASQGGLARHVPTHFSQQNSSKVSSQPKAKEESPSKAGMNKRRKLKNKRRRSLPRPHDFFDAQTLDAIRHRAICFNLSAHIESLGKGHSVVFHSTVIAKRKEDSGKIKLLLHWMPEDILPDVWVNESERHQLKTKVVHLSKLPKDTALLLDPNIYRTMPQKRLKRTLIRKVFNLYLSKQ
Sequence of purified human, His-tagged PRC2 complex (Q09028 whole entry partner): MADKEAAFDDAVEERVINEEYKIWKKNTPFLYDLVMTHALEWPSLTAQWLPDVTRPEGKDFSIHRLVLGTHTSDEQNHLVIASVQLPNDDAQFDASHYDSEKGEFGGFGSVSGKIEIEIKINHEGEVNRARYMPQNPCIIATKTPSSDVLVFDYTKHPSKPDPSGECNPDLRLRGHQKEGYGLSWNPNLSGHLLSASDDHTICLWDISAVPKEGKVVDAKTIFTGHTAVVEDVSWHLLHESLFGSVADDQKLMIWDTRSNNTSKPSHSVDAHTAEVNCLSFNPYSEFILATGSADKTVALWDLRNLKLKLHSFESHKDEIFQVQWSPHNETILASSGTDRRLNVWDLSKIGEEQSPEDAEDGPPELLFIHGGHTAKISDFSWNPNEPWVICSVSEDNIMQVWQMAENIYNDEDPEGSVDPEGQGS

Structure (SMILES) | IC50 [1] [nM] | IC50 [2] [nM] | IC50 [3] [nM]
Cn1nccc1-c1cnc(NCc2c(F)ccc3c2CCO3)n2cc(CN3CCC3)nc12 [Example 29, 2-(azetidin-1-ylmethyl)-N-((5-fluoro-2,3-dihydrobenzofuran-4-yl)methyl)-8-(1-methyl-1H-pyrazol-5-yl)imidazo[1,2-c]pyrimidin-5-amine] | 500 to 2000 | 500 to 5000 | 500 to 5000
NCc1cn2c(NCc3c(F)ccc4c3CCO4)ncc(-c3cc(F)cc(F)c3)c2n1 [Example 16, 2-(aminomethyl)-8-(3,5-difluorophenyl)-N-((5-fluoro-2,3-dihydrobenzofuran-4-yl)methyl)imidazo[1,2-c]pyrimidin-5-amine] | 500 to 2000 | 500 to 5000 | 500 to 5000
Cc1cc(S(C)(=O)=O)ccc1-c1cnc(NCc2c(F)ccc3c2CCO3)n2cc(C(C)N)nc12 (stereo not drawn) [Example 34, 2-(1-aminoethyl)-N-((5-fluoro-2,3-dihydrobenzofuran-4-yl)methyl)-8-(2-methyl-4-(methylsulfonyl)phenyl)imidazo[1,2-c]pyrimidin-5-amine] | < 250 | < 250 | < 250
CC(N)c1cn2c(NCc3c(F)ccc4c3CCO4)ncc(-c3cc(C(F)(F)F)nn3C)c2n1 (stereo not drawn) [Example 36, 2-(1-aminoethyl)-N-((5-fluoro-2,3-dihydrobenzofuran-4-yl)methyl)-8-(1-methyl-3-(trifluoromethyl)-1H-pyrazol-5-yl)imidazo[1,2-c]pyrimidin-5-amine] | < 250 | < 250 | < 250

More lines, now with the values ahead:

IC50 [1] [nM] | IC50 [2] [nM] | IC50 [3] [nM] | Structure (SMILES)
500 to 2000 | 500 to 5000 | 250 to 500 | COCc1cn2c(NCc3c(F)ccc4c3CCO4)ncc(-c3cc(C)nn3C)c2n1 [Example 9, 8-(1,3-dimethyl-1H-pyrazol-5-yl)-N-((5-fluoro-2,3-dihydrobenzofuran-4-yl)methyl)-2-(methoxymethyl)imidazo[1,2-c]pyrimidin-5-amine]
250 to 500 | < 250 | < 250 | Cn1nc(C(F)(F)F)cc1-c1cnc(NCc2c(F)ccc3c2CCO3)n2cc(CN)nc12 [Example 15, 2-(aminomethyl)-N-((5-fluoro-2,3-dihydrobenzofuran-4-yl)methyl)-8-(1-methyl-3-(trifluoromethyl)-1H-pyrazol-5-yl)imidazo[1,2-c]pyrimidin-5-amine]
< 250 | < 250 | < 250 | Cn1nccc1-c1cnc(NCc2c(F)ccc3c2CCO3)n2cc(CN)nc12 [Example 18, 2-(aminomethyl)-N-((5-fluoro-2,3-dihydrobenzofuran-4-yl)methyl)-8-(1-methyl-1H-pyrazol-5-yl)imidazo[1,2-c]pyrimidin-5-amine]
< 250 | < 250 | < 250 | Cc1cc(-c2cnc(NCc3c(F)ccc4c3CCO4)n3cc(CN)nc23)n(C)n1 [Example 10, 2-(aminomethyl)-8-(1,3-dimethyl-1H-pyrazol-5-yl)-N-((5-fluoro-2,3-dihydrobenzofuran-4-yl)methyl)imidazol[1,2-c]pyramidin-5-amine]
